Measured values published in ChEMBL document CHEMBL1149374, “Synthesis and biological evaluation of gem-diamine 1-N-iminosugars related to L-iduronic acid as inhibitors of heparan sulfate 2-O-sulfotransferase” (Bioorg Med Chem Lett, 2006).

Target: T1, Heparan sulfate 2-O-sulfotransferase 1 (Cricetulus longicaudatus) (UniProt O08889)
T1 sequence (whole entry): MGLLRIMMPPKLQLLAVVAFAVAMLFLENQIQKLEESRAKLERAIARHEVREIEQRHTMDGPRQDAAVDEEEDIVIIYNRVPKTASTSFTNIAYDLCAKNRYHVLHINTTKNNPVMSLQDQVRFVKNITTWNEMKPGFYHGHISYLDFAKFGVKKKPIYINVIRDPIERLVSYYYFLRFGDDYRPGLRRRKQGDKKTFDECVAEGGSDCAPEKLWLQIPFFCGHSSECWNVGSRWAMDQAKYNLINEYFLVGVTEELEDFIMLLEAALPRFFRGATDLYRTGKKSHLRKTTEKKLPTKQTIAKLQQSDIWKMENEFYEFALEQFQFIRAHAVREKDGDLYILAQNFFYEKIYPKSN
Test: Inhibition of sulfate transfer by HS 2-O-ST from CHO cells
Assay type: functional, cell-based
Conditions: concentration not given here

inhibition [%]	SMILES
84	CCC(CC)C(=O)N1C[C@@H](C(=O)O)[C@H](N=C(N)N)[C@H](O)[C@H]1NC(C)=O
76	CC(=O)N[C@H]1NC[C@@H](C(=O)O)[C@H](N=C(N)N)[C@@H]1O
